Tested on: sapstain
Conditions: fresh cut hackberry lumber dipped in aqueous solutions (1,3,5,7 and 10% boric acid; DOT at the same level of boric oxide); stacked for air drying; examined after six months of seasoning and planing
Experimental: Aqueous solutions containing 1,3,5,7, and 10% boric acid according to my preferred embodiment were prepared and used to treat fresh cut hackberry lumber by dipping. Aqueous disodium octaborate tetrahydrate solutions containing the same level of boric oxide were prepared and used in the same manner. This treated lumber, and untreated controls, was stacked in accordance with standard sawmill air drying practice. After six months of seasoning the lumber was planed, and examined for sapstain control.

Question: How did the sapstain control turn out when `OB(O)O` [boric acid] was run?
Answer: Its sapstain control is “superior sapstain control compared to the DOT concentrations”.

Question: How did the sapstain control turn out when `O.O.O.O.O=BOB1OB(OB=O)OB2OB([O-])OB([O-])OB(O1)O2.[Na+].[Na+]` [DOT, disodium octaborate tetrahydrate] was run?
Answer: The sapstain control was “superior to the untreated controls”.
